Reference: patent publication US7910559B2, “Decladinosyl-macrolides with anti-inflammatory activity” (GlaxoSmithKline istrazivacki centar Zagreb d.o.o., priority 2005, dated 2011)
Like-named read-outs stand apart in the source and are kept apart here.

Columns and labels:
Assay type in all cases: cell-based
[1] = tested on: human TNF-α; assay: Inhibition of TNF-α production by stimulated human peripheral blood leukocytes in vitro (ELISA); conditions: Homo sapiens, Leukocyte, PBL, read-out: Percentage of inhibition of TNF-α production; for inhibition at 10 µM: compound 10 μM; for inhibition at 50 µM: compound 50 μM
Outline: (§1)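 Human PBL from healthy donors preincubated 2 h at 37 °C with compound, then stimulated overnight with 2 μg/mL LPS, 1 μg/mL PMA or 120 μg/mL zymosan. Supernatant cytokines measured by sandwich ELISA. % inhibition is relative to stimulated, untreated cells.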

[2] = tested on: human IL-8; assay: Inhibition of IL-8 production by stimulated human peripheral blood leukocytes in vitro (ELISA); conditions: Homo sapiens, Leukocyte, PBL, read-out: Percentage of inhibition of IL-8 production; for inhibition at 10 µM: compound 10 μM; for inhibition at 50 µM: compound 50 μM
Outline: as §1

[3] = tested on: Hep G2; conditions: human, 24 h
Procedure: (§2) Anti-inflammatory activity of compounds, i.e. observed inhibition of cytokine production and inhibition of proliferation in vitro, is not a consequence of their cytotoxicity.
(§3) Measurement of the succinate dehydrogenase activity in living cells was performed in order to assess the cytotoxicity of compounds of the invention. Cells were cultured for 24 hours in RPMI medium as described above at 37° C., in the presence of the tested compounds at concentrations of 50 μM and 12.5 μM. Afterwards, MTT [3-(4,5-dimethylthiazole-2-yl)-2,5-diphenyl tetrazolium bromide] (Promega, USA) as detection reagent was added and incubated for 0.5-2 hours. The amount of produced MTT-Formazan was determined spectrophotometrically at 490 nm (Mosmann, J. Immunol. Methods, 1983, 65: 55-63).
(§4) Percentage of viable cells was calculated using the following formula: % viable cells=[…]

[4] = tested on: THP-1; conditions: human, 24 h
Procedure: as §2, §3, §4

[5] = tested on: A549; conditions: human, 24 h
Procedure: as §2, §3, §4

[6] = tested on: human peripheral blood mononuclear cells (PBMC); assay: Human peripheral blood mononuclear cell proliferation in vitro ((3H)thymidine incorporation); conditions: Homo sapiens, PBMC, read-out: Percentage of inhibition of proliferation of stimulated PBMC; for inhibition at 10 µM: compound 10 μM; for inhibition at 50 µM: compound 50 μM
Procedure: Substances, used in in vitro experiments, were dissolved in dimethyl sulfoxide (DMSO) (Kemika, Croatia) at concentrations of 50 mM and 10 mM and were further diluted to the final concentrations of […] in 1 mL Dulbecco's modified Eagle medium (DMEM) supplemented with 1% heat inactivated fetal bovine serum (FBS), 1% glutamax, 50 U/ml penicillin, 50 μg/ml streptomycin and 2.5 μg/mL Fungizone (amphotericin B). Media and all media supplements were purchased from Gibco, Australia, except FBS that was from Sigma, USA.
Heparinized peripheral blood was obtained from healthy donors, and peripheral blood mononuclear cells (PBMC) were isolated by Histopaque 1077 (Sigma, USA) density centrifugation at 400 g for 30 minutes. Collected PBMC were centrifuged in plasma at 400 g/10 min, resuspended and washed in RPMI 1640 (Institute of Immunology, Croatia) by centrifugation.
Influence of substances at two different concentrations (50 μM and 10 μM) on proliferation of human peripheral blood mononuclear cells (PBMC) was assessed.
Heparinized peripheral blood was obtained from healthy donors, and PBMC were isolated by Histopaque 1077 (Sigma, USA) density centrifugation at 400 g for 30 minutes. 5×10^4 cells/well were cultured for 3 days in the RPMI medium as described above, in the presence (positive control) or absence (negative control) of stimulators [PHA (2.5 μg/mL) (Sigma, USA) or both PMA (10 ng/mL) (Sigma, USA) and ionomycin (500 ng/mL) (Calbiochem, USA)] and tested substances at 37° C. in 5% CO2 and 90% humidity. The cells were pulsed with 1 μCi of (^3H)thymidine (Amersham, USA) per well during the last 18 h of the cultures and were harvested on a 96-well filter (Packard Bioscience, USA) with a multiple cell harvester (Packard, USA). The incorporation of (^3H)thymidine in activated cells was measured by TopCount NXT (Packard, USA).
Inhibition of cell proliferation (as a percentage) was calculated using the following formula: % inhibition=(1−(^3H)thymidine incorporation expressed in counts per minute (cpm) in sample/(3H)thymidine incorporation expressed in cpm in positive control)×100 where “positive control” refers to stimulated samples not treated with substances.

[7] = tested on: human IL-1β; assay: Inhibition of IL-1β production by stimulated human peripheral blood leukocytes in vitro (ELISA); conditions: Homo sapiens, Leukocyte, PBL, read-out: Percentage of inhibition of IL-1β production; for inhibition at 10 µM: compound 10 μM; for inhibition at 50 µM: compound 50 μM
Outline: as §1

[8] = tested on: human IL-6; assay: Inhibition of IL-6 production by stimulated human peripheral blood leukocytes in vitro (ELISA); conditions: Homo sapiens, Leukocyte, PBL, read-out: Percentage of inhibition of IL-6 production; for inhibition at 10 µM: compound 10 μM; for inhibition at 50 µM: compound 50 μM
Outline: as §1

Row | Structure (SMILES) | inhibition at 10 µM ([1]; LPS stimulation) | inhibition at 50 µM ([1]; LPS stimulation) | inhibition at 10 µM ([1]; PMA stimulation) | inhibition at 50 µM ([1]; PMA stimulation) | inhibition at 10 µM ([1]; zymosan stimulation) | inhibition at 50 µM ([1]; zymosan stimulation) | inhibition at 10 µM ([2]; LPS stimulation) | inhibition at 50 µM ([2]; LPS stimulation) | inhibition at 10 µM ([2]; PMA stimulation) | inhibition at 50 µM ([2]; PMA stimulation) | inhibition at 10 µM ([2]; zymosan stimulation) | inhibition at 50 µM ([2]; zymosan stimulation) | Percentage of viable cells after treatment ([3]; 12.5 μM) | Percentage of viable cells after treatment ([3]; 50 μM) | Percentage of viable cells after treatment ([4]; 12.5 μM) | Percentage of viable cells after treatment ([4]; 50 μM) | Percentage of viable cells after treatment ([5]; 12.5 μM) | Percentage of viable cells after treatment ([5]; 50 μM) | inhibition at 10 µM ([6]; PHA stimulation) | inhibition at 50 µM ([6]; PHA stimulation) | other results
1 | CC[C@H]1OC(=O)[C@H](C)[C@@H](OC(=O)CCN(CC)CC)[C@H](C)[C@@H](O[C@@H]2O[C@H](C)C[C@H](N(C)C)[C@H]2O)[C@](C)(OC)C[C@@H](C)C(=O)[C@H](C)[C@@H](O)[C@]1(C)O [Example 5, 3-O-(3-Diethylamino-propionyl)-3-O-decladinosyl-6-O-methyl-erythromycin A] | 3% | 92% | 29% | 100% | 17% | 100% | 22% | 95% | 48% | 83% | 48% | 100% | >86% | 100% | 100% | >80% | 100% | 100% | 99% | 100% | inhibition at 10 µM ([6]; PMA + ionomycin stimulation): 90%; inhibition at 50 µM ([6]; PMA + ionomycin stimulation): 100%; inhibition at 10 µM ([7]; LPS stimulation): 75%; inhibition at 50 µM ([7]; LPS stimulation): 80%; inhibition at 10 µM ([7]; PMA stimulation): 91%; inhibition at 50 µM ([7]; PMA stimulation): 100%; inhibition at 10 µM ([7]; zymosan stimulation): 68%; inhibition at 50 µM ([7]; zymosan stimulation): 100%; inhibition at 10 µM ([8]; LPS stimulation): 38%; inhibition at 50 µM ([8]; LPS stimulation): 100%; inhibition at 10 µM ([8]; PMA stimulation): 78%; inhibition at 50 µM ([8]; PMA stimulation): 100%; inhibition at 10 µM ([8]; zymosan stimulation): 51%; inhibition at 50 µM ([8]; zymosan stimulation): 100%
2 | CC[C@H]1OC(=O)[C@H](C)[C@@H](O[C@H]2C[C@@](C)(OC)[C@@H](O)[C@H](C)O2)[C@H](C)[C@@H](O[C@@H]2O[C@H](C)C[C@H](N(C)C)[C@H]2O)[C@](C)(O)C[C@@H](C)CN(C)[C@H](C)[C@@H](O)[C@]1(C)O [azithromycin, reference compound] | 36% | 20% | 0% | 0% | 6% | 64% | 0% | 0% | 0% | 0% | 0% | 0% | 100% | >95% | 100% | >95% | 100% | 100% | 5% | 29% | inhibition at 10 µM ([6]; PMA + ionomycin stimulation): 9%; inhibition at 50 µM ([6]; PMA + ionomycin stimulation): 31%; inhibition at 10 µM ([7]; LPS stimulation): 28%; inhibition at 50 µM ([7]; LPS stimulation): 48%; inhibition at 10 µM ([7]; PMA stimulation): 0%; inhibition at 50 µM ([7]; PMA stimulation): 0%; inhibition at 10 µM ([7]; zymosan stimulation): 20%; inhibition at 50 µM ([7]; zymosan stimulation): 75%; inhibition at 10 µM ([8]; LPS stimulation): 15%; inhibition at 50 µM ([8]; LPS stimulation): 40%; inhibition at 10 µM ([8]; PMA stimulation): 0%; inhibition at 50 µM ([8]; PMA stimulation): 0%; inhibition at 10 µM ([8]; zymosan stimulation): 20%; inhibition at 50 µM ([8]; zymosan stimulation): 75%
3 | CC[C@H]1OC(=O)[C@H](C)[C@@H](O[C@H]2C[C@@](C)(OC)[C@@H](O)[C@H](C)O2)[C@H](C)[C@@H](O[C@@H]2O[C@H](C)C[C@H](N(C)C)[C@H]2O)[C@](C)(OC)C[C@@H](C)C(=O)[C@H](C)[C@@H](O)[C@]1(C)O [clarithromycin, reference compound] | 0% | 0% | 0% | 0% | 0% | 0% | 23% | 0% | 33% | 0% | 0% | 0% | 100% | 100% | 100% | >95% | 100% | 100% | 0% | 7% | inhibition at 10 µM ([6]; PMA + ionomycin stimulation): 9%; inhibition at 50 µM ([6]; PMA + ionomycin stimulation): 14%; inhibition at 10 µM ([7]; LPS stimulation): 0%; inhibition at 50 µM ([7]; LPS stimulation): 0%; inhibition at 10 µM ([7]; PMA stimulation): 26%; inhibition at 50 µM ([7]; PMA stimulation): 33%; inhibition at 10 µM ([7]; zymosan stimulation): 36%; inhibition at 50 µM ([7]; zymosan stimulation): 59%; inhibition at 10 µM ([8]; LPS stimulation): 11%; inhibition at 50 µM ([8]; LPS stimulation): 0%; inhibition at 10 µM ([8]; PMA stimulation): 0%; inhibition at 50 µM ([8]; PMA stimulation): 0%; inhibition at 10 µM ([8]; zymosan stimulation): 28%; inhibition at 50 µM ([8]; zymosan stimulation): 0%
